From US6939680B2 (H. Lundbeck A/S, priority 1990, dated 2005)
Read-outs that look alike come from different tables or passages of the source.

Assays:
DA1 receptor = conditions: clinical trials; cited from earlier work
[1] = molecular target: T1, human dopamine D1 receptor clone GL-30 (dopamine D1β receptor) (Homo sapiens, UniProt P21918); assay: [3H]SCH-23390 radioligand binding (saturation and competition) to membranes of Cos-7 cells transfected with clone GL-30
T1 construct: expressed in transfected cells; host or cells: Cos-7 cells, transient transfection with pcEXV-3 carrying GL-30

[2] = competition binding, GL-30 in Cos-7 membranes

T1 sequence (P21918 whole entry): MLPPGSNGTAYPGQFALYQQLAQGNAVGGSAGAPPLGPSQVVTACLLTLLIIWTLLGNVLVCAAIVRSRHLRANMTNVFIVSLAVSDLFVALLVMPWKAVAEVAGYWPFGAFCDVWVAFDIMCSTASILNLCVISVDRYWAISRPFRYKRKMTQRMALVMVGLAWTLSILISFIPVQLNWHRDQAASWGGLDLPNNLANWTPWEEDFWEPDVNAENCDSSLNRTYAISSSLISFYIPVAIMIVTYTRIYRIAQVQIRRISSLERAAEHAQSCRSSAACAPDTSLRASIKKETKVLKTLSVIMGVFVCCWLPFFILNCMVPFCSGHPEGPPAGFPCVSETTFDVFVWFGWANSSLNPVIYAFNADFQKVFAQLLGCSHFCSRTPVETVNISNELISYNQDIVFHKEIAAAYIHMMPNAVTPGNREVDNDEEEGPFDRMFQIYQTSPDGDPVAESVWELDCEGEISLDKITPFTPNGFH

| Compound | potency/affinity in displacing [3H]SCH-23390 binding (in words) [1, 2] | potency/affinity in displacing [3H]SCH-23390 binding (in words) [1] | other results |
| --- | --- | --- | --- |
| Oc1ccc(C2CNCCc3c2cc(O)c(O)c3Cl)cc1 (stereo not drawn) [fenoldopam] | – | – | renal vasodilatory action (DA1 receptor): potent renal vasodilatory action |
| NC[C@H](O)c1ccc(O)c(O)c1 [norepinephrine] | inactive | – | – |
| cis-flupenthixol | – | most potent | – |
| CCCN1CCC[C@@H]2Cc3n[nH]cc3C[C@H]21 [quinpirole] | – | low affinity | – |
| CCN1CCC[C@H]1CNC(=O)c1cc(S(N)(=O)=O)ccc1OC [(−) sulpiride] | low affinity | – | – |
| COc1ccc2c(c1O)-c1c3c(cc4c1[C@H](C2)N(C)CC4)OCO3 [bulbocapnine] | – | – | Ki values compared with those reported for the D1 receptor ([1]; versus native rat and human brain tissues and Cos-7 cells transfected with the previously cloned D1 gene): comparable |
